The target of test [1] is porcine pancreatic elastase, PPE (Sus scrofa, UniProt P00772). Briefly: Inhibition of PPE activity (Protocol A). The format is biochemical. Particulars: 30° C., 0.05M pH 7.4 phosphate buffer, 2.5% MeCN; 50% reduction of enzyme activity 6.4 minutes after zero time; read-out: PPE-inhibitory activity IC50 (converted). How it is done: To illustrate this point, Table 1 reports the results of our preliminary screening test (carried out with porcine pancreatic elastase, PPE), wherein four representative compounds of the present invention (formula I) are compared with the corresponding 2-unsubstitued compounds of formula II (References A and B).
Protocol A--Inhibition of PPE activity was determined at 30° C., 0.05M pH 7.4 phosphate buffer, 2.5% MeCN, by monitoring the release of p-nitroaniline (410 nm, Carlo Erba Strumentazione Spectracomp spectrophotometer) from the substrate (N-t-Boc-alanyl-alanyl-prolyl-alanine-p-nitroanilide, 0.2 mM initial concentration).

Test [2] deals with T1, human leukocyte elastase (HLE) (Homo sapiens, UniProt P08246).
T1 construct: purchased Calbiochem Lot 702038
T1 sequence (P08246 30-267): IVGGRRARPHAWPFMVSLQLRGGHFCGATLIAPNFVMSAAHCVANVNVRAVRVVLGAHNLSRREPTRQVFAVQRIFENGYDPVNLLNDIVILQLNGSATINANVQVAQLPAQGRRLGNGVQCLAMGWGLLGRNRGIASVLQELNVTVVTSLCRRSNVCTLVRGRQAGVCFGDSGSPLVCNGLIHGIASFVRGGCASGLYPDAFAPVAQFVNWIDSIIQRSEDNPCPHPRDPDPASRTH
Briefly: Inhibition of HLE activity, kinetic parameters (Protocol B). The format is biochemical. Particulars: for Ki: steady state, read-out: "Potency" K1^ (apparent dissociation constant of the HLE-inhibitor complex at steady state, Ki^ss).
Procedure: Protocol B--Inhibition of HLE activity (Calbiochem, Lot 702038) was determined at 37° C., 0.027M pH 7.4 phosphate buffer, 1% DMSO, 1% MeCN, NaCl (I=15), by monitoring the release of 7-amino-4-methylcoumarin (fluorescence detection) from N-methoxysuccinyl-alanyl-prolyl-valyl-7-amido-4-methylcoumarin as substrate, according to the equations: [formula] wherein: [P], [I], [S]=product, inhibitor and substrate concentration
km =Michaelis constant for the enzyme-substrate pair (independently determined under the same experimental conditions).

The mark [3] stands for this setting: 37° C., 0.027M pH 7.4 phosphate buffer, 1% DMSO, 1% MeCN, read-out: "Efficacy" Kon (rate of formation of the HLE-inhibitor complex).
Setting [4] is: 37° C., 0.027M pH 7.4 phosphate buffer, 1% DMSO, 1% MeCN.

Data on ten compounds can be found in patent publication US5348952A, “β-lactam derivatives of the cephem sulphone type” (Farmitalia Carlo Erba S.R.L., priority 1989, dated 1994).

The term IC50 denotes the midpoint of a concentration-inhibition curve. For orientation: kon means the rate constant with which the complex forms.

The structures appear in SMILES notation. Like-named read-outs stand apart in the source and are kept apart here.

Sequence of porcine pancreatic elastase, PPE (P00772 27-266): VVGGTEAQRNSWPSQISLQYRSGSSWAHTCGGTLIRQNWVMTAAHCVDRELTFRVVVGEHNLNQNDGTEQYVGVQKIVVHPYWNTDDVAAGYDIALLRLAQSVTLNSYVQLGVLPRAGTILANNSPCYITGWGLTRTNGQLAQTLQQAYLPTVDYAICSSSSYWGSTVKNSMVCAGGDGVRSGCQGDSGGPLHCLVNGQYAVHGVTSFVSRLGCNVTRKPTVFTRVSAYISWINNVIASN

For the compound `CO[C@H]1C(=O)N2C(C(=O)C(C)(C)C)=C(C)C(Sc3nc(=O)c(O)nn3C)S(=O)(=O)[C@H]12` (stereo partly drawn) [n° 9, 4-tert-Butylcarbonyl-7α-methoxy-3-methyl-2-(2-methyl-5-oxo-6-hydroxy-2,5-dihydro-1,2,4-triazin-3-yl)thio-3-cephem 1,1-dioxide], in test [1], the IC50 is 65.4 nM. The kon in test [2] (setting [3]) came out at 25000 M⁻¹ s⁻¹. Besides, in test [2] (setting [4]), the Ki was found to be 26 nM. As to `CO[C@H]1C(=O)N2C(C(=O)C(C)(C)C)=C(C)CS(=O)(=O)[C@H]12` [Reference B, reference compound], the IC50 in test [1] is 6640 nM. Still for that read-out and setting: for `CC1=C(C(=O)C(C)(C)C)N2C(=O)[C@H](Cl)[C@H]2S(=O)(=O)C1` [Reference A, reference compound] the value was 6540 nM.

`CC1=C(C(=O)OC(C)(C)C)N2C(=O)[C@H](Cl)[C@H]2S(=O)(=O)C1Sc1nc2ccccc2s1` (some centres unmarked) [Reference C, reference compound]: in test [1], the IC50 is 4110 nM.

As for `CC1=C(C(=O)C(C)(C)C)N2C(=O)[C@H](Cl)[C@H]2S(=O)(=O)C1Sc1nc(=O)c(OC(c2ccccc2)c2ccccc2)nn1C` (stereo partly drawn) [n° 4, 4-Tert-butylcarbonyl-7α-chloro-3-methyl-2-(2-methyl-5-oxo-6-benzhydryloxy-2,5-dihydro 1,2,4-triazin-3-yl-)thio-3-cephem 1,1-dioxide], the IC50 in test [1] was 71.5 nM.

Take `CO[C@H]1C(=O)N2C(C(=O)C(C)(C)C)=C(C)C(Sc3nnnn3C)S(=O)(=O)[C@H]12` (stereo partly drawn) [n° 1, 4-tert-Butylcarbonyl-7α-methoxy-3-methyl-2-(1-methyl-1,2,3,4-tetrazol-5-yl)thio-3-cephem 1,1-dioxide]: the IC50 in test [1] is 96.3 nM. In test [2] (setting [3]), the kon is 90000 M⁻¹ s⁻¹. Besides, the Ki in test [2] (setting [4]) came out at 8.3 nM. For `CO[C@H]1C(=O)N2C(C(=O)C(C)(C)C)=C(C)C(Sc3nnnn3CCCC(=O)O)S(=O)(=O)[C@H]12` (stereo partly drawn) [n° 7, 4-tert-Butylcarbonyl-7α-methoxy-3-methyl-2-[1-(3-carboxy-1-propyl)-1,2,3,4-tetrazol-5-yl]thio-3-cephem 1,1-dioxide], in test [2] (setting [3]), the kon was determined as 11000 M⁻¹ s⁻¹. Further, the Ki in test [2] (setting [4]) amounted to 18 nM. For `COC(=O)C1=C(C)C(Sc2nnnn2C)S(=O)(=O)[C@@H]2[C@@H](OC)C(=O)N12` (some centres unmarked) [Reference D, reference compound], the IC50 in test [1] is 12800 nM. Further, the kon in test [2] (setting [3]) worked out at 500 M⁻¹ s⁻¹. Also, the Ki in test [2] (setting [4]) is 38 nM. `CC1=C(C(=O)C(C)(C)C)N2C(=O)[C@H](Cl)[C@H]2S(=O)(=O)C1Sc1nc(=O)c(O)nn1C` (stereo partly drawn) [n° 5, 4-tert-butylcarbonyl-7α-chloro-3-methyl-2-(2-methyl-5-oxo-6-hydroxy-2,3-dihydro-1,2,4-triazin-3-yl)-thio-3-cephem 1,1-dioxide]: in test [1], the IC50 was 75.6 nM.

With `CO[C@H]1C(=O)N2C(C(=O)N3CCCC3)=C(CSc3nc(=O)c(O)nn3C)CS(=O)(=O)[C@H]12` [Merck L-659,286, reference compound], the kon in test [2] (pH 7.4, read-out: "Efficacy" Kon (rate of formation of the HLE-inhibitor complex)) was found to be 1500 M⁻¹ s⁻¹.
